Like-named read-outs stand apart in the source and are kept apart here. Bounds are passed on as bounds.

For orientation: IC50 means the midpoint of a concentration-inhibition curve. A word on the inhibition: it is the share of the control response that was lost under treatment.

Test [1] concerns mouse liver microsomal lipid peroxidation. The test can be described thus: Inhibition of mouse liver microsomal lipid peroxidation (LP). As to conditions: read-out: LP IC50 Value; 45 min incubation. On the technique in general: Microsomes from liver hold many membrane-bound enzymes, among them those of drug oxidation.
Test [2] addresses soybean lipoxygenase (LOX-3). Description: Soybean lipoxygenase (LOX-3) inhibition. The test is classed as biochemical. The following applies: after 5 min of incubation; sodium linoleate 100 μM, pH 9.0. As to the method: Lipoxygenase (LOX) inhibitory activity was determined using soybean lipoxygenase (250 U/mL) and sodium linoleate (100 μM) as substrate, in Tris–HCl buffer pH 9.0.

Test [3] is described as follows: Radical scavenging of DPPH. As to conditions: DPPH 200 μM, 30 min incubation. As to the method:
Compounds, dissolved in absolute methanol, at concentrations of 25–400 μM, were added to an equal volume of a methanolic solution of DPPH (final concentration 200 μM) at room temperature (22 ± 2 °C).
(DPPH is a stable violet radical that fades when it is reduced.)

In test [4] the test system is plasma of hyperlipidaemic mice. Description: Total antioxidant capacity (TAC) of plasma in hyperlipidaemic mice. The test is classed as in vivo. As to conditions: Mus musculus, ip, 24 h, i.p. 84 μmol/kg, read-out: Total Antioxidant Capacity (TAC) Increase (%).
Test [5] concerns carrageenan-induced mouse paw edema. Description: Carrageenan-induced mouse paw edema. As to conditions: ip, 3.5 h, i.p. 0.30 mmol/kg, female C57BL/6, 3.5 h after carrageenan, read-out: % Edema (decrease of carrageenan-induced paw edema vs control). In kind it is in vivo, C57BL/6 mice. As for the experimental part:
For the in vivo anti-inflammatory activity, C57BL/6 mice were injected with 0.025 mL carrageenan (2% w/v solution in saline) i.d. into the right hind paw, the left paw serving as control. The test compounds dissolved in saline (300 μmol/kg) were given i.p. right after the carrageenan injection, and 3.5 h later the produced edema was estimated as paw weight increase. Results are expressed as percentage of reduction in paw-edema and are the mean of 6 animals (per compound).
In general terms: The carrageenan paw model is a standard test of acute inflammation.

The target of test [6] is T1, acetylcholinesterase from eel (Electrophorus electricus, UniProt O42275).
T1 construct: purchased Sigma
T1 sequence (O42275 24-633): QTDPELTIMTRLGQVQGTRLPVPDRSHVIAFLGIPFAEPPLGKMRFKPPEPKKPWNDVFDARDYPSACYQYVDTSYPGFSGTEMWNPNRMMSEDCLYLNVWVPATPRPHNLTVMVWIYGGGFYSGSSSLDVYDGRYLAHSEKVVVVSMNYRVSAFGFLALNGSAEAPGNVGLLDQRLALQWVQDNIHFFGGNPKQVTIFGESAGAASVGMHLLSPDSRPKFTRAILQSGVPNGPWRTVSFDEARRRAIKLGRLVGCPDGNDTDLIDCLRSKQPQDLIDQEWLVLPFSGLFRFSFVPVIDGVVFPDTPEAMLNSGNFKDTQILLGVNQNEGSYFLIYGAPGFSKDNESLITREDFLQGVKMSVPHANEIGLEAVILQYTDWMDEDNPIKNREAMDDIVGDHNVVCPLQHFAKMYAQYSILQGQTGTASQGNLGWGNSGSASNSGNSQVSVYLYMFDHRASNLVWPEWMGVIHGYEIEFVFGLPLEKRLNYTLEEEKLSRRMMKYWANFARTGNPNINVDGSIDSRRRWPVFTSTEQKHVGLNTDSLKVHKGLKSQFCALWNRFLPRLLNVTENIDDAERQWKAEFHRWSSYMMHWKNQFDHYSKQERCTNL
Description: Acetylcholinesterase (AChE) inhibition (Ellman). The test is classed as biochemical. The following applies: for inhibition at 300 µM: read-out: AChE Inhibition (%), 300 μM compound. As to the method:
(0.31 mM) in phosphate buffer with pH = 7. The incubation mixture is monitored for 7 min at 37 °C.

Another test deals with hyperlipidaemic mice. Description: Tyloxapol (Triton WR 1339)-induced hyperlipidemia, plasma lipid parameters. The test is classed as in vivo. As to conditions: i.p. 84 μmol/kg; for change in vivo at 84 µmol/kg / inhibition in vivo at 84 µmol/kg: Mus musculus, ip, 24 h. As to the method:
An aqueous solution of Triton WR 1339 was given i.p. to mice (400 mg/kg of body weight) and one hour later the test compounds (84 μmol/kg of body weight), dissolved in saline or saline only, were administered i.p. After 24 h, blood was taken from the aorta/heart and used for the determination of plasma total cholesterol (TC), triglyceride (TG) levels, and high-density lipoprotein (HDL) levels, using commercially available kits (Biosis Cholesterol Enzymatic/PAP, Biosis Triglycerides GPO/PAP, and Biosis HDL Phosphovolframic, Biosis, Athens Greece). Levels of plasma lipids were determined in duplicate while values presented are the mean from 8 animals (per compound). The levels of low-density lipoprotein (LDL) are calculated according to the equation: LDL (mg/dL) = 3/4 * (TC-HDL).

A short description of test [7]: Iron chelation (ferrozine assay). As to conditions: for % of Fe(II) Chelation (at 100 μM): 100 μM compound, Fe2+ 20 μM. As to the method:
[…] The reaction was initiated with the addition of a 100 μM aqueous ferrozine solution, which chelates iron ions, resulting in an increased maximum absorbance at 562 nm. After incubation at 37 °C for 10 min, the mixture’s absorbance is measured at 562/700 nm. Each value is expressed as the mean of 3 tests per sample [46].

Another test relates to AChE. The following applies: read-out: IC50 against AChE; cited from earlier work.
Where [8] appears, read: plasma, vs tyloxapol control, read-out: % HDL Increase.
[9] abbreviates: ratio calculated, read-out: % HDL/LDL Increase (antiatherogenic index).
[10] abbreviates: LDL calculated as 3/4*(TC-HDL), read-out: % LDL Decrease.
The mark [11] stands for this setting: plasma, vs tyloxapol control, read-out: % Total Cholesterol (TC) Reduction.
Setting [12] is: plasma, vs tyloxapol control, read-out: % Triglycerides (TG) Reduction.

With `O=C(/C=C/c1ccccc1)N1CCSC(c2ccc(-c3ccccc3)cc2)C1` (stereo not drawn) [Compound 8, (E)-1-(2-([1,1′-Biphenyl]-4-yl)thiomorpholino)-3-phenylprop-2-en-1-one], the figures for the IC50 in test [1], in test [2] and in test [3] were above 1000 µM, above 200 µM and above 400 µM, respectively. For the same compound, the change in vivo at 84 µmol/kg in [4] is 104%; in the test with hyperlipidaemic mice (setting [8]), 9%; with hyperlipidaemic mice (setting [9]) it was 91%. In addition, the inhibition in vivo at 300 µmol/kg in test [5] came to 46%. Moreover, the inhibition at 300 µM in [6] was found to be 19%. The inhibition in vivo at 84 µmol/kg with hyperlipidaemic mice (setting [10]) was 57%; in the test on hyperlipidaemic mice (setting [11]), 45%; in the test with hyperlipidaemic mice (setting [12]), 53%. Besides, the “% of Fe(II) Chelation (at 100 μM)” value in [7] was 5%.
As to `O=C(c1cc(O)c(O)c(O)c1)N1CC(c2ccc(-c3ccccc3)cc2)Sc2ccccc21` (stereo not drawn) [Compound 13, (2-([1,1′-Biphenyl]-4-yl)-2,3-dihydro-4H-benzo[b][1,4]thiazin-4-yl)(3,4,5-trihydroxyphenyl)methanone], the IC50 in test [1] was found to be 24 µM; in test [2], 37 µM; in test [3], 36 µM. Also, the values for the change in vivo at 84 µmol/kg (in test [4]; in the test on hyperlipidaemic mice (setting [8])) were 60% and 25%, respectively. In addition, the inhibition in vivo at 300 µmol/kg in test [5] was at most 60%. The inhibition at 300 µM in [6] is around 45%. For the same compound, the inhibition in vivo at 84 µmol/kg in the test on hyperlipidaemic mice (setting [10]) is 62%; in the test on hyperlipidaemic mice (setting [11]), 47%; in the test on hyperlipidaemic mice (setting [12]), 53%. For the same compound, the “% of Fe(II) Chelation at 10 μM” value in test [7] (10 μM compound) is recorded as 12%. The “% of Fe(II) Chelation (at 100 μM)” value in [7] was found to be 91%.
For the compound `COc1cc(C(=O)O)cc(OC)c1O` [syringic acid], in the test with AChE, the IC50 was around 149 µM.
As to `O=C(c1cccnc1)N1CCSC(c2ccc(-c3ccccc3)cc2)C1` (stereo not drawn) [Compound 9], the IC50 is above 1000 µM in [1], 192 µM in test [2] and above 400 µM in test [3]. In addition, the values for the change in vivo at 84 µmol/kg (in test [4]; in the test with hyperlipidaemic mice (setting [9])) were 60% and 105%, respectively. Besides, the inhibition in vivo at 300 µmol/kg in [5] was 34%. Further, the inhibition at 300 µM in test [6] came out at 33%. Further, the inhibition in vivo at 84 µmol/kg in the test with hyperlipidaemic mice (setting [10]) was 44%; in the test on hyperlipidaemic mice (setting [11]) it was 35%. Moreover, the “% Triglycerides (TG), value marked footnote 1: increase percentage” value in the test on hyperlipidaemic mice (plasma, TG increase, not reduction) is 33 *^,1%. Moreover, the “% of Fe(II) Chelation (at 100 μM)” value in test [7] amounted to 2%.
Turning to `CC(C)(C)c1cc(C(=O)N2CCSC(c3ccc(-c4ccccc4)cc3)C2)cc(C(C)(C)C)c1O` (stereo not drawn) [Compound 5, (2-([1,1′-Biphenyl]-4-yl)thiomorpholino)(3,5-ditertbutyl-4-hydroxyphenyl)methanone], the values for the IC50 in test [1], in [2] and in test [3] were 250 µM, 150 µM and 300 µM, respectively. Further, the change in vivo at 84 µmol/kg in [4] turned out to be 0%. Further, the inhibition in vivo at 300 µmol/kg in [5] is 35%. The inhibition at 300 µM in test [6] worked out at 24%. Besides, the inhibition in vivo at 84 µmol/kg in the test with hyperlipidaemic mice (setting [11]) turned out to be 55%; in the test with hyperlipidaemic mice (setting [12]), 50%. Also, the “% of Fe(II) Chelation (at 100 μM)” value in [7] was found to be 0%.
With `c1ccc(-c2ccc(C3CNc4ccccc4S3)cc2)cc1` (stereo not drawn) [Compound 11, 2-([1,1′-Biphenyl]-4-yl)-3,4-dihydro-2H-benzo[b][1,4]thiazine], the IC50 is 30 µM in [1], 134 µM in [2] and above 400 µM in test [3]. The change in vivo at 84 µmol/kg is above 200% in test [4] and 101% in the test with hyperlipidaemic mice (setting [8]). For the same compound, the inhibition in vivo at 300 µmol/kg in test [5] was 40%. The “AChE Inhibition (%)” value in test [6] (300 μM compound) is “inactivity”. In addition, the inhibition in vivo at 84 µmol/kg in the test with hyperlipidaemic mice (setting [10]) was 48%; in the test on hyperlipidaemic mice (setting [11]), 23%; in the test with hyperlipidaemic mice (setting [12]), 59%. The “% of Fe(II) Chelation (at 100 μM)” value in [7] came out at 10%.
For the compound `COc1ccc(/C=C/C(=O)N2CCSC(c3ccc(-c4ccccc4)cc3)C2)cc1OC` (stereo not drawn) [Compound 2, (E)-1-(2-([1,1′-Biphenyl]-4-yl)thiomorpholino)-3-(3,4-dimethoxyphenyl)prop-2-en-1-one], the IC50 is above 1000 µM in test [1], above 300 µM in test [2] and above 400 µM in [3]. In addition, the values for the change in vivo at 84 µmol/kg (in test [4]; in the test with hyperlipidaemic mice (setting [8]); in the test with hyperlipidaemic mice (setting [9])) were 43%, 44% and 122%, respectively. For the same compound, in [5], the inhibition in vivo at 300 µmol/kg was at most 60%. The inhibition at 300 µM in [6] amounted to 26%. Besides, the inhibition in vivo at 84 µmol/kg in the test on hyperlipidaemic mice (setting [10]) was 53%; in the test on hyperlipidaemic mice (setting [11]), 30%; with hyperlipidaemic mice (setting [12]), 60%. For the same compound, the “% of Fe(II) Chelation (at 100 μM)” value in test [7] was 18%.
In the case of `O=C(/C=C/c1ccc(O)c(O)c1)O[C@@H]1C[C@](O)(C(=O)O)C[C@@H](O)[C@H]1O` [chlorogenic acid], the IC50 with AChE was around 277 µM.
Consider `CC(C)Cc1ccc(C(C)C(=O)N2CC(c3ccc(-c4ccccc4)cc3)Sc3ccccc32)cc1` (stereo not drawn) [Compound 17, 1-(2-([1,1′-Biphenyl]-4-yl)-2,3-dihydro-4H-benzo[b][1,4]thiazin-4-yl)-2-(4-isobutylphenyl)propan-1-one], for which the IC50 in [1] was above 1000 µM; in test [2], 104 µM; in test [3], above 400 µM. For the same compound, the change in vivo at 84 µmol/kg in test [4] stood at 139%; in the test with hyperlipidaemic mice (setting [8]), 43%. Also, in test [5], the inhibition in vivo at 300 µmol/kg turned out to be 39%. Moreover, in test [6], the inhibition at 300 µM worked out at 13%. The inhibition in vivo at 84 µmol/kg in the test with hyperlipidaemic mice (setting [10]) is 68%; in the test with hyperlipidaemic mice (setting [11]) it was 45%; with hyperlipidaemic mice (setting [12]), 58%. Also, in test [7], the “% of Fe(II) Chelation (at 100 μM)” value is 29%.
For `COc1ccc(/C=C/C(=O)N2CC(c3ccc(-c4ccccc4)cc3)Sc3ccccc32)cc1OC` (stereo not drawn) [Compound 12, (E)-1-(2-([1,1′-Biphenyl]-4-yl)-2,3-dihydro-4H-benzo[b][1,4]thiazin-4-yl)-3-(3,4-dimethoxyphenyl)prop-2-en-1-one], the IC50 is above 1000 µM in test [1], 74 µM in test [2] and above 400 µM in test [3]. Further, the change in vivo at 84 µmol/kg came to 203% in test [4] and 63% in the test with hyperlipidaemic mice (setting [8]). For the same compound, the inhibition in vivo at 300 µmol/kg in [5] was 43%. Also, in test [6], the inhibition at 300 µM was 17%. For the same compound, the inhibition in vivo at 84 µmol/kg in the test on hyperlipidaemic mice (setting [10]) is 59%; with hyperlipidaemic mice (setting [11]) it was 27%; with hyperlipidaemic mice (setting [12]), 29%. Moreover, the “% of Fe(II) Chelation (at 100 μM)” value in test [7] came out at 17%.
Take `CC(C)(C)c1cc(C(=O)N2CC(c3ccc(-c4ccccc4)cc3)Sc3ccccc32)cc(C(C)(C)C)c1O` (stereo not drawn) [Compound 15, (2-([1,1′-Biphenyl]-4-yl)-2,3-dihydro-4H-benzo[b][1,4]thiazin-4-yl)(3,5-ditertbutyl-4-hydroxyphenyl)methanone]: the 50% inhibitory concentration (IC50) is above 500 µM in test [1], 83 µM in test [2] and above 400 µM in [3]. In addition, the change in vivo at 84 µmol/kg was 131% in test [4] and 79% in the test with hyperlipidaemic mice (setting [8]). Further, the inhibition in vivo at 300 µmol/kg in test [5] is 31%. Moreover, the inhibition at 300 µM in test [6] is 23%. Besides, the inhibition in vivo at 84 µmol/kg was 74% in the test with hyperlipidaemic mice (setting [10]), 55% in the test on hyperlipidaemic mice (setting [11]) and 35% with hyperlipidaemic mice (setting [12]). Moreover, the “% of Fe(II) Chelation (at 100 μM)” value in [7] was 8%.

Source of the values: publication PMC12693416, “From Lipid Regulation to Neuroprotection: Multitarget (Benzo)thiazine Derivatives as Promising Leads” (Molecules, 2025).
